Among the data in BindingDB's records for doi:10.1021/np900246t (Griffith University, 2009) are IC50 values, retold here.

As usually defined, the pIC50 is the IC50 on a negative log10 scale, so that one unit is a factor of ten.

This experiment concerns the target MAP kinase-activated protein kinase 2 (Homo sapiens, UniProt P49137). The experiment is described as follows: Inhibition of GST-tagged MAPKAPK2 assessed as [33P] incorporation after 40 mins by scintillation proximity assay. Background: In a scintillation proximity assay essentially only radioactivity close to the scintillant gives light.

Each structure is given as a SMILES string. pIC50: −log10 of the molar value.

Chain of MAP kinase-activated protein kinase 2 (P49137 whole entry): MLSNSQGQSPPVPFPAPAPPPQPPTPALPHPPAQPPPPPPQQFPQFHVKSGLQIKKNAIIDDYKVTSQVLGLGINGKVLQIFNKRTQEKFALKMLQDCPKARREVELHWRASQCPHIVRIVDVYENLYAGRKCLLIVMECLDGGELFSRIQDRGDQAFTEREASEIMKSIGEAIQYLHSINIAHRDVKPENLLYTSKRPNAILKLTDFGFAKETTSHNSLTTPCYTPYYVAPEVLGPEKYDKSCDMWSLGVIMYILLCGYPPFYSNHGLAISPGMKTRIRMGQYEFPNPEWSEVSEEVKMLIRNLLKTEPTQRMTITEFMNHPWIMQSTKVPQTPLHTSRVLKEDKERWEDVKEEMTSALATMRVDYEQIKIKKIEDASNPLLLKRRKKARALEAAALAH

Consider `CC(C)=CCC/C(C)=C/C[C@]12C[C@@H](CC=C(C)C)C(C)(C)[C@](C/C=C(\C)CCC=C(C)C)(C(=O)C(C(=O)c3ccc(O)c(O)c3)C1=O)C2=O` (some centres not stated) [guttiferone O], for which the negative logarithm of the IC50 (pIC50) was 4.66.
With `CC(C)=CCC/C(C)=C/C[C@]12C[C@@H](CC=C(C)C)[C@](C)(CCC=C(C)C)[C@](CC=C(C)C)(C(=O)C(C(=O)c3ccc(O)c(O)c3)C1=O)C2=O` (some centres not stated) [guttiferone P], the negative logarithm of the IC50 (pIC50) is 4.66.
